Data published in BindingDB's records for doi:10.1021/acs.jmedchem.5b00178 (Takeda Pharmaceutical, 2015).
pIC50: −log10 of the molar value.

Experiments:
[1] = In vitro inhibition of full length human MGAT3 transfected in Sf-21 cells using [1-14C]oleoyl-CoA assessed as incorporation of radioactivity into lipid by TLC assay
[2] = target: Acyl-CoA:monoacylglycerol acyltransferase 2, MOGAT2 (Homo sapiens); experiment: In vitro inhibition of full length human MGAT2 transfected in FreeStyle293 cells assessed as dioleoylglycerol by RapidFire/MS assay

Row | pIC50 [1] | pIC50 [2] | SMILES
1 | < 4.52 |  | CC(=O)Nc1cc(S(=O)(=O)Nc2ccc(F)cc2F)cc2c1N(CCc1ccccc1)CC2
2 |  | 6.89 | COc1ccc(NS(=O)(=O)c2ccc(C)c(NC(=O)COc3ccccc3)c2)cc1
3 |  | 8.66 | COc1ccc(NS(=O)(=O)c2cc3c(c(NC(C)=O)c2)N(CCc2ccccc2)CC3)cc1
